Laboratory results as given in the supplement of paper PMC11451515.

How the values were obtained:
Assay in all cases: AUC of viability dose-response curve (% viability x log10 dose units); higher = less sensitive
Details in all cases: 48 h
P12-Ichikawa = tested on: P12-Ichikawa
Method in brief: (§1)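 Library compounds in DMSO were applied for 48 h at 37°C at 11 threefold doses (47 μM to 0.79 nM) to medium-adapted leukemia cells in 1536-well plates holding 500 or 1000 cells/well. Luminescence from CellTiter-Glo One was normalised plate by plate against DMSO and cell-free wells. Area under the curve came from trapezoidal integration of a log-logistic fit, after scaling curves that rose above full viability and discarding those that failed quality control. The fit had four parameters and used log10 doses.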

SEM cells = tested on: SEM cells
Method in brief: as §1

NOMO1 = tested on: NOMO1
Method in brief: as §1

[1] = RPMI 5 mM glucose + 10% dialyzed FBS

| SMILES | AUC of viability dose-response curve (P12-Ichikawa; HPLM + 10% dialyzed FBS) | AUC of viability dose-response curve (P12-Ichikawa; RPMI 5 mM glucose + 10% FBS) | AUC of viability dose-response curve (P12-Ichikawa; [1]) | AUC of viability dose-response curve (SEM cells; HPLM + 10% dialyzed FBS) | AUC of viability dose-response curve (SEM cells; RPMI 5 mM glucose + 10% FBS) | AUC of viability dose-response curve (SEM cells; [1]) | AUC of viability dose-response curve (NOMO1; HPLM + 10% dialyzed FBS) | AUC of viability dose-response curve (NOMO1; RPMI 5 mM glucose + 10% FBS) | AUC of viability dose-response curve (NOMO1; [1]) |
| --- | --- | --- | --- | --- | --- | --- | --- | --- | --- |
| COc1cc(NCc2ccc3nc(N)nc(N)c3c2C)cc(OC)c1OC | 346 | 383 | 350 | 345 | 370 | 336 | 347 | 397 | 380 |
| COC1=CC=C(C=C1)/C2=C(O)/C(=O)C3=C(O)C=C(O)C(=C3O2)CC=C(C)C | 467 | 473 | 468 | 457 | 434 | 467 | 464 | 454 | 464 |
| COCCn1c2c([n+](Cc3cnccn3)c1C)C(=O)c1ccccc1C2=O | 251 | 247 | 244 | 161 | 209 | 189 | 194 | 232 | 223 |
| OC1=CC=C(C=C1)C/2=C/C3=C(OC2)C=C(O)C=C3 | 354 | 356 | 349 | 355 | 358 | 362 | 368 | 411 | 418 |
| COc1ccc(CCC(=O)c2c(O)cc(O[C@@H]3O[C@H](CO)[C@@H](O)[C@H](O)[C@H]3O[C@@H]3O[C@@H](C)[C@H](O)[C@@H](O)[C@H]3O)cc2O)cc1O | 458 | 442 | 463 | 464 | 455 | 465 | 413 | 426 | 425 |
| NC1=NC(=O)N2CC12 (stereo not given) | 400 | 369 | 349 | 312 | 314 | 281 | 367 | 350 | 352 |
| C[C@@H]1CC[C@@]2(CC[C@]3(C)\C(=C/C[C@@H]4[C@@]5(C)CC[C@H](O)C(C)(C)[C@@H]5CC[C@@]34C)[C@@H]2[C@H]1C)C(O)=O | 462 | 469 | 458 | 465 | 467 | 456 | 477 | 461 | 468 |
| CN(CCOc1ccc(CC2SC(=O)NC2=O)cc1)c1ccccn1 (stereo not given) | 467 | 465 | 462 | 469 | 433 | 466 | 442 | 474 | 443 |
| CCC(C)CCCCC(=O)N[C@@H](CCN)C(=O)NC(C(=O)N[C@H](CCN)C(=O)N[C@@H]1CCNC(=O)C([C@@H](C)O)NC(=O)[C@@H](CCN)NC(=O)[C@@H](CCN)NC(=O)[C@@H](CC(C)C)NC(=O)[C@H](Cc2ccccc2)NC(=O)[C@H](CCN)NC1=O)[C@@H](C)O (stereo not given in full) | 461 | 457 | 445 | 429 | 471 | 434 | 457 | 451 | 470 |
| O=C(O)c1cc(O)c2c(c1)C(=O)c1cccc(O)c1C2=O | 455 | 464 | 443 | 451 | 460 | 464 | 464 | 445 | 466 |
| CN(C)c1nc(Cc2ccc(NC(=O)c3ccc(C(F)(F)F)cc3)cc2)nc(N(C)C)c1CC(=O)O | 471 | 465 | 461 | 473 | 445 | 470 | 452 | 432 | 451 |
| O=C(O)c1ccc(O)c2ncc(N3CCOCC3)cc12 | 452 | 431 | 435 | 453 | 424 | 393 | 447 | 417 | 454 |
| OC[C@H]1O[C@H](C[C@@H]1O)N2/C=C(C(=O)NC2=O)/C(F)(F)F | 317 | 375 | 371 | 317 | 407 | 350 | 356 | 449 | 391 |
| C[C@]12CC[C@H]3[C@@H](CC(=C)\C4=C\C(=O)\C=C/[C@]34C)[C@@H]1CCC2=O | 466 | 466 | 461 | 426 | 438 | 437 | 463 | 429 | 444 |
| CCCN[C@H]1CCc2nc(N)sc2C1 | 462 | 430 | 450 | 453 | 442 | 442 | 447 | 434 | 466 |
| Cc1ccc([C@@H]2O[C@H](CO)[C@@H](O)[C@H](O)[C@H]2O)cc1Cc1ccc(-c2ccc(F)cc2)s1 | 465 | 467 | 465 | 475 | 467 | 468 | 467 | 468 | 472 |
| CCn1nnc2c(N3CCOCC3)nc(-c3ccc(NC(=O)Nc4ccc(C(=O)N5CCN(C)CC5)cc4)cc3)nc21 | 391 | 353 | 352 | 330 | 296 | 337 | 309 | 395 | 341 |
| O=C(/C=C/c1ccc(/C=C/C(=O)Nc2ccc(C3=NCCN3)cc2)cc1)Nc1ccc(C2=NCCN2)cc1 | 467 | 467 | 473 | 460 | 448 | 459 | 456 | 439 | 464 |
| NC(=O)c1cccc(-c2cc(Nc3ccc(OC(F)(F)F)cc3)ncn2)c1 | 469 | 466 | 460 | 441 | 464 | 423 | 457 | 436 | 428 |
| CCCCCCNC(=O)N1\C=C(F)/C(=O)NC1=O | 458 | 459 | 456 | 466 | 458 | 435 | 451 | 468 | 443 |
